# Test results taken from the supplement of paper PMC5908809.
# What was measured:
# [1] = tested on: normal NK cells expanded with K562-aAPC; assay: percent inhibition of viability; higher = more inhibition; conditions: 72 h, IL-2 2.5 ng/mL
# Protocol: (§1)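 Drug sensitivity and resistance testing on K562-aAPC-expanded normal NK cells: 5 concentrations (10-fold steps over a 10,000-fold range), 72 h at 37 °C, viability by CellTiter-Glo normalised to DMSO and benzethonium chloride controls; DSS from the fitted curve.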
# DERL-7 (IL-2 2.5 ng/mL) [2] = assay: as above; conditions: 72 h
# IMC-1 (IL-2 20 ng/mL) [3] = assay: as above; conditions: 72 h
# KAI3 (IL-2 2.5 ng/mL) [4] = assay: as above; conditions: 72 h
# KHYG-1 (IL-2 2.5 ng/mL) [5] = assay: as above; conditions: 72 h
# NK-92 (IL-2 2.5 ng/mL) [6] = assay: as above; conditions: 72 h
# NK-YS (IL-2 2.5 ng/mL) [7] = assay: as above; conditions: 72 h
# NKL (IL-2 2.5 ng/mL) [8] = assay: as above; conditions: 72 h
# SNK-6 (IL-2 2.5 ng/mL) [9] = assay: as above; conditions: 72 h
# YT (IL-2 2.5 ng/mL) [10] = assay: as above; conditions: 72 h
# [11] = tested on: normal primary NK cells, pool 1 (3 donors) (IL-2 2.5 ng/mL); assay: as above; conditions: 72 h
# [12] = tested on: normal primary NK cells, pool 1 (3 donors), resting (IL-2 0 ng/mL); assay: as above; conditions: 72 h
# [13] = tested on: normal primary NK cells, pool 2 (3 donors) (IL-2 2.5 ng/mL); assay: as above; conditions: 72 h
# [14] = tested on: normal primary NK cells, pool 3 (3 donors) (IL-2 2.5 ng/mL); assay: as above; conditions: 72 h
# [15] = tested on: normal NK cells expanded with K562-aAPC; assay: drug sensitivity score (DSS) (DSS units); higher = more sensitive; extreme values may be limits of the assay; conditions: 72 h; IL-2 2.5 ng/mL
# Protocol: as §1
# DERL-7 (IL-2 2.5 ng/mL) [16] = assay: as above; conditions: 72 h
# IMC-1 (IL-2 20 ng/mL) [17] = assay: as above; conditions: 72 h
# KAI3 (IL-2 2.5 ng/mL) [18] = assay: as above; conditions: 72 h
# KHYG-1 (IL-2 2.5 ng/mL) [19] = assay: as above; conditions: 72 h
# NK-92 (IL-2 2.5 ng/mL) [20] = assay: as above; conditions: 72 h
# NK-YS (IL-2 2.5 ng/mL) [21] = assay: as above; conditions: 72 h
# NKL (IL-2 2.5 ng/mL) [22] = assay: as above; conditions: 72 h
# SNK-6 (IL-2 2.5 ng/mL) [23] = assay: as above; conditions: 72 h
# YT (IL-2 2.5 ng/mL) [24] = assay: as above; conditions: 72 h
# [25] = tested on: normal primary NK cells, pool 1 (3 donors) (IL-2 2.5 ng/mL); assay: as above; conditions: 72 h
# [26] = tested on: normal primary NK cells, pool 1 (3 donors), resting (IL-2 0 ng/mL); assay: as above; conditions: 72 h
# [27] = tested on: normal primary NK cells, pool 2 (3 donors) (IL-2 2.5 ng/mL); assay: as above; conditions: 72 h
# [28] = tested on: normal primary NK cells, pool 3 (3 donors) (IL-2 2.5 ng/mL); assay: as above; conditions: 72 h
structure (smiles),measurement,setting,value
O=C(NOCC1CC1)c1ccc(F)c(F)c1Nc1ccc(I)cc1Cl (max concentration tested 10000 nM),percent inhibition of viability,[1]; 1 nM,-3.45%
same,percent inhibition of viability,[1]; 10 nM,-0.57%
same,percent inhibition of viability,[1]; 100 nM,-0.04%
same,percent inhibition of viability,[1]; 1000 nM,3.29%
same,percent inhibition of viability,[1]; 10000 nM,35.4%
same,percent inhibition of viability,DERL-7 (IL-2 2.5 ng/mL) [2]; 1 nM,2.61%
same,percent inhibition of viability,DERL-7 (IL-2 2.5 ng/mL) [2]; 10 nM,5.1%
same,percent inhibition of viability,DERL-7 (IL-2 2.5 ng/mL) [2]; 100 nM,12.3%
same,percent inhibition of viability,DERL-7 (IL-2 2.5 ng/mL) [2]; 1000 nM,29.5%
same,percent inhibition of viability,DERL-7 (IL-2 2.5 ng/mL) [2]; 10000 nM,78%
same,percent inhibition of viability,IMC-1 (IL-2 20 ng/mL) [3]; 1 nM,2.83%
same,percent inhibition of viability,IMC-1 (IL-2 20 ng/mL) [3]; 10 nM,1.66%
same,percent inhibition of viability,IMC-1 (IL-2 20 ng/mL) [3]; 100 nM,4.76%
same,percent inhibition of viability,IMC-1 (IL-2 20 ng/mL) [3]; 1000 nM,7.54%
same,percent inhibition of viability,IMC-1 (IL-2 20 ng/mL) [3]; 10000 nM,65.8%
same,percent inhibition of viability,KAI3 (IL-2 2.5 ng/mL) [4]; 1 nM,15%
same,percent inhibition of viability,KAI3 (IL-2 2.5 ng/mL) [4]; 10 nM,14.8%
same,percent inhibition of viability,KAI3 (IL-2 2.5 ng/mL) [4]; 100 nM,26.2%
same,percent inhibition of viability,KAI3 (IL-2 2.5 ng/mL) [4]; 1000 nM,27.5%
same,percent inhibition of viability,KAI3 (IL-2 2.5 ng/mL) [4]; 10000 nM,80.7%
same,percent inhibition of viability,KHYG-1 (IL-2 2.5 ng/mL) [5]; 1 nM,2.03%
same,percent inhibition of viability,KHYG-1 (IL-2 2.5 ng/mL) [5]; 10 nM,1.47%
same,percent inhibition of viability,KHYG-1 (IL-2 2.5 ng/mL) [5]; 100 nM,16.1%
same,percent inhibition of viability,KHYG-1 (IL-2 2.5 ng/mL) [5]; 1000 nM,39%
same,percent inhibition of viability,KHYG-1 (IL-2 2.5 ng/mL) [5]; 10000 nM,82.4%
same,percent inhibition of viability,NK-92 (IL-2 2.5 ng/mL) [6]; 1 nM,2.8%
same,percent inhibition of viability,NK-92 (IL-2 2.5 ng/mL) [6]; 10 nM,6.04%
same,percent inhibition of viability,NK-92 (IL-2 2.5 ng/mL) [6]; 100 nM,-10.5%
same,percent inhibition of viability,NK-92 (IL-2 2.5 ng/mL) [6]; 1000 nM,-0.9%
same,percent inhibition of viability,NK-92 (IL-2 2.5 ng/mL) [6]; 10000 nM,95.2%
same,percent inhibition of viability,NK-YS (IL-2 2.5 ng/mL) [7]; 1 nM,3.04%
same,percent inhibition of viability,NK-YS (IL-2 2.5 ng/mL) [7]; 10 nM,1.78%
same,percent inhibition of viability,NK-YS (IL-2 2.5 ng/mL) [7]; 100 nM,6.53%
same,percent inhibition of viability,NK-YS (IL-2 2.5 ng/mL) [7]; 1000 nM,13.3%
same,percent inhibition of viability,NK-YS (IL-2 2.5 ng/mL) [7]; 10000 nM,59.9%
same,percent inhibition of viability,NKL (IL-2 2.5 ng/mL) [8]; 1 nM,9.41%
same,percent inhibition of viability,NKL (IL-2 2.5 ng/mL) [8]; 10 nM,19%
same,percent inhibition of viability,NKL (IL-2 2.5 ng/mL) [8]; 100 nM,33.2%
same,percent inhibition of viability,NKL (IL-2 2.5 ng/mL) [8]; 1000 nM,57.9%
same,percent inhibition of viability,NKL (IL-2 2.5 ng/mL) [8]; 10000 nM,83.2%
same,percent inhibition of viability,SNK-6 (IL-2 2.5 ng/mL) [9]; 1 nM,-8.27%
same,percent inhibition of viability,SNK-6 (IL-2 2.5 ng/mL) [9]; 10 nM,-11.4%
same,percent inhibition of viability,SNK-6 (IL-2 2.5 ng/mL) [9]; 100 nM,-27.2%
same,percent inhibition of viability,SNK-6 (IL-2 2.5 ng/mL) [9]; 1000 nM,-19.6%
same,percent inhibition of viability,SNK-6 (IL-2 2.5 ng/mL) [9]; 10000 nM,97.3%
same,percent inhibition of viability,YT (IL-2 2.5 ng/mL) [10]; 1 nM,1.25%
same,percent inhibition of viability,YT (IL-2 2.5 ng/mL) [10]; 10 nM,1.46%
same,percent inhibition of viability,YT (IL-2 2.5 ng/mL) [10]; 100 nM,5.39%
same,percent inhibition of viability,YT (IL-2 2.5 ng/mL) [10]; 1000 nM,14.5%
same,percent inhibition of viability,YT (IL-2 2.5 ng/mL) [10]; 10000 nM,82.6%
same,percent inhibition of viability,[11]; 1 nM,-7.14%
same,percent inhibition of viability,[11]; 10 nM,-7.1%
same,percent inhibition of viability,[11]; 100 nM,14.2%
same,percent inhibition of viability,[11]; 1000 nM,13%
same,percent inhibition of viability,[11]; 10000 nM,17.1%
same,percent inhibition of viability,[12]; 1 nM,-5.53%
same,percent inhibition of viability,[12]; 10 nM,0.69%
same,percent inhibition of viability,[12]; 100 nM,6.91%
same,percent inhibition of viability,[12]; 1000 nM,8.17%
same,percent inhibition of viability,[12]; 10000 nM,44.4%
same,percent inhibition of viability,[13]; 1 nM,-2.72%
same,percent inhibition of viability,[13]; 10 nM,-4.8%
same,percent inhibition of viability,[13]; 100 nM,-4.96%
same,percent inhibition of viability,[13]; 1000 nM,4.5%
same,percent inhibition of viability,[13]; 10000 nM,21%
same,percent inhibition of viability,[14]; 1 nM,-3.37%
same,percent inhibition of viability,[14]; 10 nM,0.57%
same,percent inhibition of viability,[14]; 100 nM,-3.93%
same,percent inhibition of viability,[14]; 1000 nM,-0.21%
same,percent inhibition of viability,[14]; 10000 nM,13.6%
same,drug sensitivity score,[15],2.2
same,drug sensitivity score,DERL-7 (IL-2 2.5 ng/mL) [16],7.6
same,drug sensitivity score,IMC-1 (IL-2 20 ng/mL) [17],4.87
same,drug sensitivity score,KAI3 (IL-2 2.5 ng/mL) [18],11.1
same,drug sensitivity score,KHYG-1 (IL-2 2.5 ng/mL) [19],9.71
same,drug sensitivity score,NK-92 (IL-2 2.5 ng/mL) [20],5.23
same,drug sensitivity score,NK-YS (IL-2 2.5 ng/mL) [21],5.39
same,drug sensitivity score,NKL (IL-2 2.5 ng/mL) [22],16.6
same,drug sensitivity score,SNK-6 (IL-2 2.5 ng/mL) [23],4.38
same,drug sensitivity score,YT (IL-2 2.5 ng/mL) [24],6.98
same,drug sensitivity score,[25],3.11
same,drug sensitivity score,[26],3.64
same,drug sensitivity score,[27],1.26
same,drug sensitivity score,[28],0.13
